As usually defined, the inhibition is the share of the control response that was lost under treatment. A high value points to strong suppression. Broadly, the IC50 is the concentration that inhibits the measured activity by half. A low value points to greater potency.

Square brackets hold non-standard residues; d marks the D form. Peptide text beside a SMILES is read from it. * marks the point of attachment. ξ: configuration not given here. ξF = NC(Cc1ccccc1)C(=O)O; Cbz = O=C(OCc1ccccc1)*

The target of assay [1] is Procathepsin L (Homo sapiens) (UniProt P07711). In words: Percent inhibition of human liver cathepsin L at 2 uM.
In assay [2] the target is Cathepsin B (Bos taurus) (UniProt P07688). In words: Percent inhibition of bovine cathepsin B at 2 uM.
For assay [3] the target is unchanged. In words: Percent inhibition of bovine cathepsin B at 0.2 uM.
The target of assay [4] is Procathepsin L (Homo sapiens) (UniProt P07711). In words: Percent inhibition of human liver cathepsin L at 20 uM.
For assay [5] the target is unchanged. In words: Percent inhibition of human liver cathepsin L at 0.2 uM.
Assay [6] deals with Cathepsin B (Bos taurus) (UniProt P07688). In words: Percent inhibition of bovine cathepsin B at 20 uM.
The target of assay [7] is T1, Calpain-1 catalytic subunit (Homo sapiens, UniProt P07384).
T1 sequence (P07384 whole entry): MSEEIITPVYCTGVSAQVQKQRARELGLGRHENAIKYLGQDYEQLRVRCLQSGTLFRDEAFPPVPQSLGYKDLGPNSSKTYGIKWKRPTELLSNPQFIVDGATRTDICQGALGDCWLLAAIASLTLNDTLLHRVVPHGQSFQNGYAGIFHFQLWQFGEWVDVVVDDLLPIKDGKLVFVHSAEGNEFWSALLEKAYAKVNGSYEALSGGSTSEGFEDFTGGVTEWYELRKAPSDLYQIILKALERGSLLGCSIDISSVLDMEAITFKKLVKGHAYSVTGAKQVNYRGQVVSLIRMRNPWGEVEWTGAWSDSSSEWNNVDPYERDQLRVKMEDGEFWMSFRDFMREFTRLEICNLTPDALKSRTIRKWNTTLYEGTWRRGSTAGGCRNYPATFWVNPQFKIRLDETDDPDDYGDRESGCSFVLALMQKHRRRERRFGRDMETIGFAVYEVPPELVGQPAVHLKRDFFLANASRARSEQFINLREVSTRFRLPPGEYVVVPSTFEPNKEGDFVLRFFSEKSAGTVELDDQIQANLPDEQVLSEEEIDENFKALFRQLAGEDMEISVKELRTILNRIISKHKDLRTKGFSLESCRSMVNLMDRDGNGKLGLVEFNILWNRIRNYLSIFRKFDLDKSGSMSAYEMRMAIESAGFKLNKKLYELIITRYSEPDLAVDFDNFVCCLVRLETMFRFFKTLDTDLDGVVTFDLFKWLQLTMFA
In words: Inhibitory concentration against human plasma mu-calpain. In kind it is cell-free.

Chain of Procathepsin L (Homo sapiens) (P07711 114-333 limits assumed): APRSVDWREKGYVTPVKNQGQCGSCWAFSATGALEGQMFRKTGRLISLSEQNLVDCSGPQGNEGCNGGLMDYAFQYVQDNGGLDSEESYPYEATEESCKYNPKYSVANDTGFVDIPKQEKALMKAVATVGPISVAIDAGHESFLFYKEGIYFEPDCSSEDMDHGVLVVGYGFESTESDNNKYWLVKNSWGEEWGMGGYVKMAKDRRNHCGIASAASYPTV

Take `Cc1c(C(=O)N[C@@H](Cc2ccccc2)C(=O)C(=O)NCCN2CCOCC2)oc2cc3c(cc2c1=O)OCCO3`: the inhibition in assay [1] turned out to be 26.5%; on Cathepsin B (Bos taurus) [2] it was 0%; against Cathepsin B (Bos taurus) [3] it was 0%; in assay [4], 92%; in assay [5], 0%; against Cathepsin B (Bos taurus) [6], 20.2%. Further, the IC50 in assay [7] is above 20 µM.
Take `Cc1c(C(=O)N[C@@H](Cc2ccccc2)C(=O)C(=O)NCc2ccccc2)oc2cc3c(cc2c1=O)OCCO3`: the inhibition turned out to be 83.8% in assay [1]; 18.6% on Cathepsin B (Bos taurus) [2]; 0% against Cathepsin B (Bos taurus) [3]; 95.8% in assay [4]; 12.7% in assay [5]; 58.2% on Cathepsin B (Bos taurus) [6]. In assay [7], this compound came in with an IC50 of 2.48 µM.
Regarding `Cc1c(C(=O)N[C@@H](Cc2ccccc2)C(=O)C(=O)NCCN2CCOCC2)oc2ccccc2c1=O`, the inhibition in assay [1] came out at 9.6%; against Cathepsin B (Bos taurus) [2] it was 0%; against Cathepsin B (Bos taurus) [3], 0%; in assay [4] it was 69.6%; in assay [5], 0%; against Cathepsin B (Bos taurus) [6] it was 23.9%. For the same compound, in assay [7], the IC50 is 8.17 µM.
Consider `Cc1c(C(=O)N[C@@H](Cc2ccccc2)C(=O)C(=O)NC(C)C)oc2ccccc2c1=O`, for which the inhibition was 17.5% in assay [1]; 0% against Cathepsin B (Bos taurus) [2]; 0% on Cathepsin B (Bos taurus) [3]; 71.2% in assay [4]; 2.1% in assay [5]; 42.6% against Cathepsin B (Bos taurus) [6]. Further, the IC50 in assay [7] stood at 5.69 µM.
`Cc1c(C(=O)N[C@@H](Cc2ccccc2)C(=O)C(=O)NCc2ccccc2)oc2ccccc2c1=O`: the inhibition in assay [1] is 65.3%; on Cathepsin B (Bos taurus) [2] it was 21.3%; against Cathepsin B (Bos taurus) [3] it was 0%; in assay [4], 95.6%; in assay [5], 8.1%; at Cathepsin B (Bos taurus) [6], 67.9%. For the same compound, the IC50 in assay [7] came to 0.72 µM.
Turning to `Cc1c(C(=O)N[C@@H](Cc2ccccc2)C(=O)C(N)=O)oc2ccccc2c1=O`, the inhibition came to 81.5% in assay [1]; 63.2% against Cathepsin B (Bos taurus) [2]; 14.4% on Cathepsin B (Bos taurus) [3]; 98.1% in assay [4]; 22.4% in assay [5]; 91.5% against Cathepsin B (Bos taurus) [6]. The 50% inhibitory concentration (IC50) in assay [7] stood at 0.24 µM.
With `NC(=O)C(=O)[C@H](Cc1ccccc1)NC(=O)c1cc(=O)c2ccccc2o1`, the inhibition in assay [1] is 87.7%; on Cathepsin B (Bos taurus) [2], 55.4%; on Cathepsin B (Bos taurus) [3] it was 21.5%; in assay [4], 99.1%; in assay [5], 54.2%; against Cathepsin B (Bos taurus) [6] it was 79.9%. Besides, inhibition in assay [7] was half-maximal at 8.73 µM (IC50).
Regarding `CCc1c(C(=O)N[C@@H](Cc2ccccc2)C(=O)C(N)=O)oc2ccccc2c1=O`, the inhibition in assay [1] stood at 89.2%; against Cathepsin B (Bos taurus) [2], 61.2%; against Cathepsin B (Bos taurus) [3] it was 16.9%; in assay [4], 96.6%; in assay [5], 31.9%; against Cathepsin B (Bos taurus) [6], 91.5%. The compound also had an IC50 in assay [7] of 0.45 µM.
`Cc1c(C(=O)N[C@@H](Cc2ccccc2)C(=O)C(=O)NCCc2ccccc2)oc2ccccc2c1=O`: the inhibition in assay [1] is 78.9%; against Cathepsin B (Bos taurus) [2] it was 49%; at Cathepsin B (Bos taurus) [3] it was 0%; in assay [4], 98.3%; in assay [5] it was 10.1%; at Cathepsin B (Bos taurus) [6], 82.1%. The same compound had an IC50 in assay [7] of 0.53 µM.
As for `Cc1c(C(=O)N[C@@H](Cc2ccccc2)C(=O)C(=O)NCCc2ccccc2)oc2cc3c(cc2c1=O)OCCO3`, the inhibition was determined as 66.8% in assay [1]; 35.3% against Cathepsin B (Bos taurus) [2]; 0% against Cathepsin B (Bos taurus) [3]; 95.7% in assay [4]; 7.4% in assay [5]; 41.4% against Cathepsin B (Bos taurus) [6]. Besides, in assay [7], it took 4.53 µM to reach half-maximal inhibition (IC50).
For `Cc1c(C(=O)N[C@@H](Cc2ccccc2)C(=O)C(N)=O)oc2cc3c(cc2c1=O)OCCO3`, the inhibition was 86.3% in assay [1]; 60.8% on Cathepsin B (Bos taurus) [2]; 26.3% at Cathepsin B (Bos taurus) [3]; 96.6% in assay [4]; 32.5% in assay [5]; 92.2% on Cathepsin B (Bos taurus) [6]. Moreover, the IC50 in assay [7] is 0.81 µM.
In the case of `CC(C)[C@H](NC(=O)OCc1ccccc1)C(=O)NC(C=O)Cc1ccccc1` (stereo partly drawn) (Cbz-Val-[ξF]-aldehyde), the inhibition came out at 100% in assay [1]; 96.6% against Cathepsin B (Bos taurus) [2]; 96% at Cathepsin B (Bos taurus) [3]; 100% in assay [4]; 100% in assay [5]; 100% against Cathepsin B (Bos taurus) [6].
For the compound `Cc1c(C(=O)N[C@@H](Cc2ccccc2)C(=O)C(=O)NC(C)C)oc2cc3c(cc2c1=O)OCCO3`, the inhibition in assay [1] came to 24.6%; against Cathepsin B (Bos taurus) [2], 0%; against Cathepsin B (Bos taurus) [3] it was 0%; in assay [4] it was 74.9%; in assay [5] it was 1.7%; at Cathepsin B (Bos taurus) [6] it was 42.2%. In assay [7], this compound returned an IC50 above 20 µM.
